Laboratory results reported in EPA's aquatic toxicity sets.

Legend:
Daphnia magna = test: 48 h LC50 (-log10 mol/L); higher = more toxic
Pimephales promelas = test: 96 h LC50 (-log10 mol/L); higher = more toxic
Tetrahymena pyriformis = test: 48 h IGC50 (-log10 mol/L); higher = more toxic

Compound | 48 h LC50 (-log10 mol/L) (Daphnia magna) | 96 h LC50 (-log10 mol/L) (Pimephales promelas) | 48 h IGC50 (-log10 mol/L) (Tetrahymena pyriformis)
Clc1cccc(Cl)c1Cl | 4.75 | – | –
COc1ccccc1O | 3.68 | – | –
CCCC(=O)Nc1ccc(OCC(O)CNC(C)C)c(C(C)=O)c1 (stereo unspecified) | 3.82 | – | –
CCS | 5.56 | – | –
NNC(=O)c1ccncc1 | 3.77 | – | –
Cc1ccc(Cl)cc1Cl | 5.42 | – | –
Cc1ccc2sccc2c1 | 4.03 | – | –
CCc1ccccc1N | 4.18 | – | –
Nc1ccn([C@H]2CC[C@@H](CO)O2)c(=O)n1 | 2.07 | – | –
C[C@]12C=CC(=O)C=C1C(Cl)=C[C@@H]1[C@@H]2[C@@H](O)C[C@@]2(C)[C@H]1CC[C@]2(O)C(=O)CO | 3.96 | – | –
CN(C)C(N)=S | 3.39 | – | –
COc1cc(Cl)c(Cl)c(Cl)c1O | 5.37 | – | –
Cc1cc(C)cc(C)c1 | 4.3 | – | –
COCC(C)O (stereo unspecified) | 0.59 | – | –
CCOP(=O)(SC(C)CC)N1CCSC1=O (stereo unspecified) | 5.76 | – | –
BrC=C(Br)Br | 4.33 | – | –
CC1CCCCC1 | 4.82 | – | –
Clc1ccc(-c2ccccc2)cc1 | 5.63 | – | –
c1ccc2c(c1)ccc1ccccc12 | 5.41 | – | –
CCCN(CCC)C(=O)SCC | 4.61 | – | –
O=C(O)c1cc(Oc2ccc(C(F)(F)F)cc2Cl)ccc1[N+](=O)[O-] | 4.26 | – | –
COc1ccc(NC(=O)N(C)C)cc1Cl | 3.15 | – | –
CCNC(=S)Nc1ccccc1 | 3.35 | – | –
CCN(CC)C(=S)SSC(=S)N(CC)CC | 5.98 | – | –

Compound | 48 h LC50 (-log10 mol/L) (Daphnia magna) | 96 h LC50 (-log10 mol/L) (Pimephales promelas) | 48 h IGC50 (-log10 mol/L) (Tetrahymena pyriformis)
CO/C=C(/C(=O)OC)c1ccccc1Oc1cc(Oc2ccccc2C#N)ncn1 | 6.39 | – | –
N#Cc1ncccn1 | 3.34 | – | –
c1ccc2c(c1)ccc1sc3ccccc3c12 | 6.03 | – | –
CC(Cc1ccc(C(C)(C)C)cc1)CN1CCCCC1 (stereo unspecified) | 5.72 | – | –
CCCOC(=O)NCCCN(C)C | 3.25 | – | –
CN=C(NC#N)NCCSCc1nc[nH]c1C | 2.53 | – | –
CN/C(=C\[N+](=O)[O-])NCCSCc1ccc(CN(C)C)o1 | 2.69 | – | –
Cc1csc2ccccc12 | 4.76 | – | –
CCOC(=O)c1ocnc1C | 2.67 | – | –
Cc1ccc(C(C)C)cc1 | 4.32 | – | –
FCC(F)(F)F | 2.02 | – | –
CC[C@H]1OC(=O)[C@H](C)[C@@H](O[C@H]2C[C@@](C)(OC)[C@@H](O)[C@H](C)O2)[C@H](C)[C@@H](O[C@@H]2O[C@H](C)C[C@H](N(C)C)[C@H]2O)[C@](C)(O)C[C@@H](C)CN(C)[C@H](C)[C@@H](O)[C@]1(C)O | 3.79 | – | –
CCNc1nc(Cl)nc(NCC)n1 | 3.33 | – | –
CC(C)(C)NCC(O)COc1cccc2c1C[C@H](O)[C@H](O)C2 (stereo partly specified) | 3.28 | – | –
Cc1ccc(C(=O)c2cc(O)c(O)c([N+](=O)[O-])c2)cc1 | 4.14 | – | –
CCCCN(CC)C(=O)SCCC | 4.47 | – | –
CCCCCOC(=O)Nc1nc(=O)n([C@@H]2O[C@H](C)[C@@H](O)[C@H]2O)cc1F | 2.63 | – | –
ClC=CCCl | 4.32 | – | –
c1ccc2c(c1)cc1ccc3cccc4ccc2c1c34 | 6 | – | –
O=S1(=O)C=Cc2ccccc21 | 4.07 | – | –
COc1cccc(N)c1 | 5.64 | – | –
COc1ccc2cc([C@H](C)C(=O)O)ccc2c1 | 3.79 | – | –
O=c1[nH]cc(F)c(=O)[nH]1 | 3.72 | – | –
N/C(=N\N=C\c1ccc(Cl)cc1)N/N=C/c1ccc(Cl)cc1 | 6.65 | – | –

Compound | 48 h LC50 (-log10 mol/L) (Daphnia magna) | 96 h LC50 (-log10 mol/L) (Pimephales promelas) | 48 h IGC50 (-log10 mol/L) (Tetrahymena pyriformis)
CC(C)(C)C(=O)Cl | 2.58 | – | –
CC1(C)[C@H](C(=O)O[C@H](C#N)c2cccc(Oc3ccccc3)c2)[C@@H]1C(Br)C(Br)(Br)Br (stereo partly specified) | 9.95 | – | –
CN(C)C(=O)Nc1ccc(Oc2ccc(Cl)cc2)cc1 | 4.99 | – | –
CCCN(CCC)C(=S)SSC(=S)N(CCC)CCC | 6.19 | – | –
COCC(=O)N(c1c(C)cccc1C)[C@H](C)C(=O)OC | 3.54 | – | –
Oc1cc(Cl)c(Cl)c(Cl)c1 | 5.46 | – | –
Cc1ccc(Cl)cc1[N+](=O)[O-] | 4.27 | – | –
CC1(C)[C@H](/C=C(\Cl)C(F)(F)F)[C@@H]1C(=O)O[C@@H](C#N)c1cccc(Oc2ccccc2)c1 | 8.68 | – | –
CCC(C)c1ccccc1OC(=O)NC (stereo unspecified) | 6.32 | – | –
Oc1ccc(Cl)cc1Cl | 4.8 | – | –
CC(Cc1ccc(C(C)(C)C)cc1)CN1C[C@@H](C)O[C@@H](C)C1 (stereo partly specified) | 5.1 | – | –
N#Cc1c(Cl)c(Cl)c(Cl)c(C#N)c1Cl | 6.21 | – | –
CC1=CC(=O)C(C)=C(C)C1=O | 5 | – | –
CCNc1nc(Cl)nc(NC(C)(C)C#N)n1 | 6.45 | – | –
CC(C)CCCCCCCCCCN(CCCCCCCCCCC(C)C)CCCCCCCCCCC(C)C | 5.96 | – | –
Clc1ccc(-c2ccc(Cl)c(Cl)c2)cc1Cl | 8.16 | – | –
ClCC(Cl)(Cl)Cl | 3.84 | – | –
CC(=O)Oc1c(C)cc(OCC(O)CNC(C)C)c(C)c1C (stereo unspecified) | 3.92 | – | –
O=C1CN(/N=C/c2ccc([N+](=O)[O-])o2)C(=O)N1 | 3.51 | – | –
CN(C)C(=S)N(C)C | 2.23 | – | –
Cc1nc(N(C)C)nc(OC(=O)N(C)C)c1C | 7.04 | – | –
Clc1cc(Cl)c(-c2ccccc2)cc1Cl | 5.64 | – | –
CC(C)=CC1C(C(=O)OCc2cccc(Oc3ccccc3)c2)C1(C)C (stereo unspecified) | 7.69 | – | –
Nc1cc(Cl)c(Cl)c(Cl)c1Cl | 5.56 | – | –

Compound | 48 h LC50 (-log10 mol/L) (Daphnia magna) | 96 h LC50 (-log10 mol/L) (Pimephales promelas) | 48 h IGC50 (-log10 mol/L) (Tetrahymena pyriformis)
CBr | 4.63 | – | –
Cc1cc(Cl)ccc1OCC(=O)O | 3.05 | – | –
CN(C)C(=N)N=C(N)N | 1.98 | – | –
COc1c(O)cc(Cl)c(Cl)c1Cl | 5.53 | – | –
COP(=O)(NC(C)=O)SC (stereo unspecified) | 4.11 | – | –
COC(=O)c1cc(Cl)ccc1Cl | – | 4.17 | 3.81
Nc1cccc(OCc2ccccc2)c1 | – | 4.34 | 3.88
CC(C)CC=O | – | 4.42 | 2.67
Oc1cccnc1Cl | – | 2.32 | 2.99
CCCCOC(=O)CCCCC(=O)OCCCC | – | 4.85 | 3.79
Oc1ccccc1O | – | 4.29 | 3.75
C=CCN=C=S | – | 6.06 | 5.06
O=[N+]([O-])c1ccc(Oc2ccccc2)cc1 | – | 4.91 | 4.58
CC(C)C(O)C(C)C | – | 2.85 | 2.29
CCCCCOCCCCC | – | 4.71 | 4.09
CC(=O)CCC=C(C)C | – | 3.17 | 2.55
CC(=O)C(C)(C)C | – | 3.06 | 1.56
N#Cc1cccc([N+](=O)[O-])c1 | – | 3.39 | 3.45
CCCCCCBr | – | 4.68 | 3.94
N#Cc1ccc([N+](=O)[O-])cc1 | – | 3.78 | 3.57
O=Cc1c(F)c(F)c(F)c(F)c1F | – | 5.25 | 3.82
Cc1ccc([N+](=O)[O-])c(O)c1 | – | 3.51 | 3.59
Oc1c(I)cc(I)cc1I | – | 5.59 | 5.67
CCCCOC(=O)/C=C/C(=O)OCCCC | – | 5.52 | 4.49

Compound | 48 h LC50 (-log10 mol/L) (Daphnia magna) | 96 h LC50 (-log10 mol/L) (Pimephales promelas) | 48 h IGC50 (-log10 mol/L) (Tetrahymena pyriformis)
CC(C)O | – | 0.778 | 1.12
C#CC(C)(C)O | – | 1.41 | 1.69
C/C=C/C=O | – | 4.92 | 4.06
C#CCO | – | 4.56 | 1.93
CCCCCC(=O)OCC | – | 4.21 | 3.06
NC(=O)c1ccccc1 | – | 2.26 | 2.09
COC(C)=O | – | 2.27 | 1.41
CCCCCCCC(C)=O | – | 3.97 | 3.66
OCCCc1cccnc1 | – | 2.96 | 2.16
CCCCCC(=O)O | – | 2.84 | 2.79
C=CC(=O)OCCO | – | 4.38 | 3.69
O=Cc1ccccc1[N+](=O)[O-] | – | 4.02 | 3.17
C=C(C)C(=O)OCc1ccccc1 | – | 4.58 | 3.65
OCC(Br)CBr (stereo unspecified) | – | 3.49 | 2.51
Cc1cc(Cl)nc(N)n1 | – | 3.01 | 2.53
CCCCCCCCc1ccc(N)cc1 | – | 6.23 | 5.43
c1ccc2cnncc2c1 | – | 3.11 | 2.66
CC(=O)c1ccncc1 | – | 2.86 | 2.13
Cc1ccc(C)c(C)c1 | – | 4.19 | 3.78
CC1(C)OCC(CO)O1 (stereo unspecified) | – | 0.898 | 1.21
Nc1ccc(F)cc1 | – | 3.82 | 3.59
Oc1ccc(Cl)cc1O | – | 4.96 | 4.06
Nc1ccc(Cl)c(Cl)c1 | – | 4.32 | 4.37
